Test results as given in PubChem BioAssay AID256 (DTP/NCI, 2004).
Inconclusive results and toxic doses are left out.

System: CD2F1 mice, L1210 leukemia ip, survival T/C
Experiment: NCI In Vivo Anticancer Drug Screen. Data for tumor model L1210 Leukemia (intraperitoneal) in CD2F1 (CDF1) mice
Details: endpoint: mean survival time, higher = longer survival
Method in brief: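 Mice carrying a transplanted tumor received test compound or vehicle alone. The value is the measurement in the treated group divided by that in the vehicle-treated control group.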

[1] = dose: 100.0 mg/kg/injection, schedule: Q04DX003 (ip), vehicle: saline with Tween-80
[2] = dose: 200.0 mg/kg/injection, schedule: Q04DX003 (ip), vehicle: saline with Tween-80
[3] = dose: 400.0 mg/kg/injection, schedule: Q04DX003 (ip), vehicle: saline with Tween-80
[4] = dose: 100.0 mg/kg/injection, schedule: Q01DX009 (ip), vehicle: saline with Tween-80
[5] = dose: 200.0 mg/kg/injection, schedule: Q01DX009 (ip), vehicle: saline with Tween-80
[6] = dose: 400.0 mg/kg/injection, schedule: Q01DX009 (ip), vehicle: saline with Tween-80
[7] = dose: 25.0 mg/kg/injection, schedule: Q04DX003 (ip), vehicle: saline with Tween-80

## Cc1cccnc1N.[Cl-].[Cl-].[Cl-].[Cl-].[Pt+2]
dose: 21.88 mg/kg/injection, schedule: Q04DX003 (ip), vehicle: saline with Tween-80
  T/C: 104 % of control
dose: 43.75 mg/kg/injection, schedule: Q04DX003 (ip), vehicle: saline with Tween-80
  T/C: 110 % of control

## O=C(CO)c1ccccc1
[1]
  T/C: 97 % of control
[2]
  T/C: 92 % of control
[3]
  T/C: 92 % of control

## CCCCOC(=O)CCC(NC(=O)c1ccc(N(C)Cc2cnc3nc(N)nc(N)c3n2)cc1)C(=O)O (centres undefined)
dose: 0.19 mg/kg/injection, schedule: Q01DX009 (ip), vehicle: water
  T/C: 112 % of control
dose: 0.38 mg/kg/injection, schedule: Q01DX009 (ip), vehicle: water
  T/C: 120 % of control
dose: 1.5 mg/kg/injection, schedule: Q01DX009 (ip), vehicle: water
  T/C: 159 % of control
dose: 3.0 mg/kg/injection, schedule: Q01DX009 (ip), vehicle: water
  T/C: 180 % of control
dose: 6.0 mg/kg/injection, schedule: Q01DX009 (ip), vehicle: water
  T/C: 86 % of control

## NS(=O)(=O)c1cc2c(cc1Cl)NCNS2(=O)=O
[4]
  T/C: 98 % of control
[5]
  T/C: 98 % of control
[6]
  T/C: 96 % of control

## COC(=O)C(Br)c1ccccc1 (centres undefined)
dose: 100.0 mg/kg/injection, schedule: Q01DX001 (ip), vehicle: saline with Tween-80
  T/C: 108 % of control
dose: 200.0 mg/kg/injection, schedule: Q01DX001 (ip), vehicle: saline with Tween-80
  T/C: 91 % of control
dose: 400.0 mg/kg/injection, schedule: Q01DX001 (ip), vehicle: saline with Tween-80
  T/C: 97 % of control

## C[n+]1c(/C=C/c2ccc([N+](=O)[O-])cc2)ccc2ccccc21
dose: 6.25 mg/kg/injection, schedule: Q01DX009 (ip), vehicle: saline with Tween-80
  T/C: 98 % of control
dose: 12.5 mg/kg/injection, schedule: Q01DX009 (ip), vehicle: saline with Tween-80
  T/C: 102 % of control
[7]
  T/C: 96 % of control

## N#C/C(=C\c1ccco1)c1ccc([N+](=O)[O-])cc1
dose: 6.25 mg/kg/injection, schedule: Q04DX003 (ip), vehicle: saline with Tween-80
  T/C: 102 % of control
dose: 12.5 mg/kg/injection, schedule: Q04DX003 (ip), vehicle: saline with Tween-80
  T/C: 102 % of control
[7]
  T/C: 100 % of control
dose: 100.0 mg/kg/injection, schedule: Q01DX001 (ip), vehicle: Klucel (hydroxypropylcellulose) (HPC)
  T/C: 106 % of control
dose: 200.0 mg/kg/injection, schedule: Q01DX001 (ip), vehicle: Klucel (hydroxypropylcellulose) (HPC)
  T/C: 95 % of control
dose: 400.0 mg/kg/injection, schedule: Q01DX001 (ip), vehicle: Klucel (hydroxypropylcellulose) (HPC)
  T/C: 94 % of control

## O=C1c2ccccc2C(=O)c2c(O)c(N3CCC(C(=O)O)CC3)cc(O)c21
dose: 12.5 mg/kg/injection, schedule: Q01DX005 (ip), vehicle: other
  T/C: 106 % of control
dose: 25.0 mg/kg/injection, schedule: Q01DX005 (ip), vehicle: other
  T/C: 104 % of control
dose: 50.0 mg/kg/injection, schedule: Q01DX005 (ip), vehicle: other
  T/C: 106 % of control
dose: 100.0 mg/kg/injection, schedule: Q01DX005 (ip), vehicle: other
  T/C: 96 % of control
dose: 200.0 mg/kg/injection, schedule: Q01DX005 (ip), vehicle: other
  T/C: 98 % of control

## COc1ccc(OC)c(NC(=O)C2CC2)c1
[4]
  T/C: 97 % of control
[5]
  T/C: 102 % of control
[6]
  T/C: 98 % of control

## COC(=O)C1C2OC(C(Br)C2Br)C1C(=O)OC (centres undefined)
[4]
  T/C: 100 % of control
[1]
  T/C: 97 % of control
[5]
  T/C: 92 % of control
[2]
  T/C: 93 % of control
[6]
  T/C: 100 % of control
[3]
  T/C: 92 % of control

## CCOC(=O)Nc1cc2c3ccccc3ncc2c2ccccc12
[7]
  T/C: 94 % of control
dose: 50.0 mg/kg/injection, schedule: Q04DX003 (ip), vehicle: saline with Tween-80
  T/C: 86 % of control
[1]
  T/C: 87 % of control
[2]
  T/C: 89 % of control
[3]
  T/C: 101 % of control
